Source: patent EP2982368A1, “Small molecule compounds displacing focal adhesion core components” (Universität Konstanz, priority 2014, dated 2016)

How the values were obtained:
FAK/Paxillin = target: T1, FAK/Paxillin (Mus musculus, UniProt P34152+Q8VI36); experiment: FAK/Paxillin displacement by structurally related compounds (FootLocker series, confocal microscopy); format: cell-based
T1 construct: expressed in transfected cells; host or cells: mouse fibroblasts stably expressing GFP-FAK
Procedure: To determine whether compounds structurally related to Mb31 and Mb36 are likewise suitable to interfere with FAK localization at focal adhesions, mouse fibroblasts stably expressing GFP-FAK were treated for 30 min with 1, 10 or 20 µM of the following compounds: trans-3-hydroxy-β-nitrostyrene (THBN), trans-4-Chloro-β-nitrostyrene (T4CN), trans-β-nitrostyrene (TBN), 4-chlorocinnamic acid (4CA), and trans-3-(4-bromothiophen-2-yl)acrylic acid (T34BA) (Figures 16 and 17). The cells were analyzed by confocal microscopy for GFP-FAK localization. DMSO treatment served as a vehicle control. […] Additional substituents at the aromatic structures, such as halogen atoms or hydroxy groups may contribute to the reactivity of the compound, but are not essential. Based on these findings, the inventors have extended their structure activity-relationship studies and synthesized additional related compounds, which, similar to Mb31, displace FAK and paxillin at concentrations below 10µM (++), displace FAK and paxillin at concentrations above 10 µM (+), or lack FAK and paxillin displacing activity (-). All these substances were then also nicknamed in the FLocker terminology, resulting in FLocker1 - FLocker24 (Table 2). Table 2: Overview of FootLocker nomenclature, their chemical notation/structure and the activity towards FAK/Paxillin displacement

NIH-v-Src fibroblasts = experiment: EGF-stimulated cell migration of transformed cells; format: cell-based; details: 10 ng/ml EGF, tracked 6 h before and 6 h after addition
Procedure: (§1) Image J was used to automatically quantify FAK-containing focal adhesions due to local maxima of fluorescence intensity in the GFP-channel (5 to 70 pixel). The number of cells was automatically counted in the Hoechst channel. To test reproducibility of the system 40 control wells were quantified wherein four positions for each well were imaged. […] GFP-FAK mouse embryonic fibroblasts were seeded on fibronectin and incubated for 1 h with the indicated concentrations of the small compounds, respectively. […] GFP-FAK mouse embryonic fibroblasts were seeded on fibronectin and serum-starved overnight. The indicated concentrations of Mb31 were applied for 30 min. Cells were lysed and analyzed for paxillin and FAK protein level as well as FAK Tyr397 phosphorylation. […] The purified kinase domain of FAK was incubated with increasing amounts of Mb31 for 1 h at 30°C together with poly-Glu-Tyr as a FAK substrate. […] Serum-starved GFP-FAK mouse embryonic fibroblasts were stimulated with normal growth medium and incubated for 5 h with the indicated concentrations of the small molecule compounds, respectively. Cell viability was assessed by MTT assay. […] GFP-FAK MEFs were seeded on fibronectin and serum-starved overnight. Migration was stimulated by replacing the medium with normal growth medium. Migration of single cells was tracked for 8 h in 30 min intervals. Migration was recorded from cells that were cultured without serum (A), with serum (B) or with serum in the presence of 3 µM Mb31 (C). […] (A) GFP-FAK MEFs were seeded and serum-starved as in Figure 10. Cell migration was stimulated with normal growth medium and single cells were tracked for 5 h. […] Mouse embryonic fibroblasts (MEFs) were transfected with talin-mCherry and talin dynamics analyzed in focal adhesions using fluorescence recovery after photobleaching (FRAP). […] (C) Wound closure was microscopically analyzed and evaluated using ImageJ software.
To further determine whether Mb31 interferes with cell motility, GFP-FAK MEFs were serum-stimulated and migration was quantified on a single cell basis (Figures 11 and 12). […]

[1] = system: MDA-MB-231 breast cancer cells; experiment: In vitro wound healing assay; format: cell-based, human; details: 3 µM, 25 h, serum-containing growth medium
Procedure: as §1, with “h. (B) Mb31 was added and the same cells were tracked for additional 5 h. (C) Mean velocities of differently treated cells were plotted over time. […] NIH-v-Src fibroblasts were seeded on 2 µg/ml FN in DMEM/0.5%BSA and stimulated with 10 ng/ml EGF or kept unstimulated.” for “h.”, “(FRAP). Cells were left untreated (A) or treated with 10 µM of Mb31 (B). In untreated cells, the mCherry intensity recovered, indicating replacement of bleached by non-bleached talin and therefore turnover of talin at focal adhesions.” for “(FRAP).”
To determine if the migration of transformed cells can be blocked by FLocker1 and related compounds, human breast carcinoma cells (MDA-MB-231) were used in in vitro wound healing assays. […] The ability of the cells to migrate and close the wound space was monitored by microscopy and quantified (Figure 18B and C).

T1 sequence (P34152 whole entry): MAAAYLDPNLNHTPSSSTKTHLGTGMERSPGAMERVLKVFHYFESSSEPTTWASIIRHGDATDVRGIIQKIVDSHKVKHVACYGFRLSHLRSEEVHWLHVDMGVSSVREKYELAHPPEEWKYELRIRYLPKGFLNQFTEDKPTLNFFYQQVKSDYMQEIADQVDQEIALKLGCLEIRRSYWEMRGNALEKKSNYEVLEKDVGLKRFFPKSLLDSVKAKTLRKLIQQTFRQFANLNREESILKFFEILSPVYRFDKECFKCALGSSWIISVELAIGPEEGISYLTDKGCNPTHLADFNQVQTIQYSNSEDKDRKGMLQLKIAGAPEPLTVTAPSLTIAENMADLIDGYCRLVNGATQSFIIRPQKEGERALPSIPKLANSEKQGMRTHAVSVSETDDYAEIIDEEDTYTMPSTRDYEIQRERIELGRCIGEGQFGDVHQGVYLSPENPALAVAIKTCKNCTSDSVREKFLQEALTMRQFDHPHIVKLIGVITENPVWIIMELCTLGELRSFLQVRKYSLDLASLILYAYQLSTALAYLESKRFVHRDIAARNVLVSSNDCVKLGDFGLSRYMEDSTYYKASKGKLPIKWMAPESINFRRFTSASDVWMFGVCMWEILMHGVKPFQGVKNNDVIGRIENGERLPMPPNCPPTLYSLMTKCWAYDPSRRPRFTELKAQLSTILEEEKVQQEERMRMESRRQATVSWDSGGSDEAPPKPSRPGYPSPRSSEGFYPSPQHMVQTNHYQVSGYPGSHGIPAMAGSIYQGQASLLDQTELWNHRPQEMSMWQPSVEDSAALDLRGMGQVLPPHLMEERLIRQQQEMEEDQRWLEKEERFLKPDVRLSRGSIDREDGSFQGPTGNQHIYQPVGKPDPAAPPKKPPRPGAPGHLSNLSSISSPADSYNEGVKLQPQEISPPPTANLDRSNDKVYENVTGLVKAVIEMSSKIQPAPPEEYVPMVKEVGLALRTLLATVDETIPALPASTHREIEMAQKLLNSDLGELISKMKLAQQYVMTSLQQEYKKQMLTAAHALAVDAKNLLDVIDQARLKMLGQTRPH
T1 sequence (Q8VI36 whole entry): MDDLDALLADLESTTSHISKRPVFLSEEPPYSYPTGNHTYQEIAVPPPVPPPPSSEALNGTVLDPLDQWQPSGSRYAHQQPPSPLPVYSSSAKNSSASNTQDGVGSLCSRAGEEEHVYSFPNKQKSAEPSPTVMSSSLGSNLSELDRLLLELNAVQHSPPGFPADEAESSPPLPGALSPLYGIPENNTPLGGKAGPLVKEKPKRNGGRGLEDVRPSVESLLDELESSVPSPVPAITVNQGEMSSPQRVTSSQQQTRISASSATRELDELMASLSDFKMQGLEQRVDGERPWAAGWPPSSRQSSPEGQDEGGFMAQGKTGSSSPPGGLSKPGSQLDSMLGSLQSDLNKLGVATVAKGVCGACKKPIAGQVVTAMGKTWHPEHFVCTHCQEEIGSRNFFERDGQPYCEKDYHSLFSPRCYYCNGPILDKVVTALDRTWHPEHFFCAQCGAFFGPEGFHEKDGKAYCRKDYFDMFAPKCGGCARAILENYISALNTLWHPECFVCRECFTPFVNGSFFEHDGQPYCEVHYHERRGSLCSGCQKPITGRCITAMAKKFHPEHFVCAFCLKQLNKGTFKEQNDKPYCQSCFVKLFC

Row | FAK displacing ability (FAK/Paxillin; GFP-FAK mouse fibroblasts, 30 min, 1, 10 or 20 µM) | Compound | migration of EGF-stimulated cells (NIH-v-Src fibroblasts) | compounds showing the most prominent effect on protein-protein interactions at focal adhesion site (FAK/Paxillin) | disruption of protein-protein interactions at focal adhesion site (FAK/Paxillin) | migration of cancer cells / wound closure [1]
1 | without FAK displacing ability | O=C(O)/C=C/c1cc(Br)cs1 [FootLocker 24, trans-3-(4-Bromothiophen-2-yl)acrylic acid, reference compound] | no effect |  |  | 
2 |  | CN(c1ccccc1CNc1nc(Nc2ccc3c(c2)CC(=O)N3)ncc1C(F)(F)F)S(C)(=O)=O [PF431396] | efficiently inhibit the migration |  |  | 
3 |  | O=[N+]([O-])/C=C/c1cccc(O)c1 [FootLocker 3, (E)-3-(2-nitrovinyl)phenol] |  | most prominent effect | efficiently disrupt protein-protein interactions at focal adhesion site | retarded the migration of the cancer cells
